ChEMBL document CHEMBL5505979, “Novel aminothiazoximone-corbelled ethoxycarbonylpyrimidones with antibiofilm activity to conquer Gram-negative bacteria through potential multitargeting effects” (Eur J Med Chem, 2024)
In brackets after ≈: the same amount, converted by molar mass.

How the values were obtained:
Type in all cases: functional
Staphylococcus aureus [1] = assay: Anti-bacterial activity against methicillin-resistant Staphylococcus aureus N315 assessed as inhibition of bacterial growth; details: Staphylococcus aureus, N315; read-out: MIC
Staphylococcus aureus [2] = assay: Anti-bacterial activity against methicillin-resistant Staphylococcus aureus ATCC 43300 assessed as inhibition of bacterial growth; details: Staphylococcus aureus, ATCC 43300; read-out: MIC
Enterococcus faecalis = assay: Anti-bacterial activity against Enterococcus faecalis V583 assessed as inhibition of bacterial growth
Klebsiella pneumoniae = assay: Anti-bacterial activity against Klebsiella pneumoniae KPN325 assessed as inhibition of bacterial growth; details: Klebsiella pneumoniae, KPN325; read-out: MIC
Staphylococcus aureus [3] = assay: Anti-bacterial activity against Staphylococcus aureus ATCC 1708 assessed as inhibition of bacterial growth; details: Staphylococcus aureus, ATCC 1708; read-out: MIC
Staphylococcus aureus [4] = assay: Anti-bacterial activity against Staphylococcus aureus ATCC 25923 assessed as inhibition of bacterial growth; details: Staphylococcus aureus, ATCC 25923; read-out: MIC
Staphylococcus aureus [5] = assay: Anti-bacterial activity against Staphylococcus aureus ATCC 29213 assessed as inhibition of bacterial growth; details: Staphylococcus aureus, ATCC 29213; read-out: MIC
Staphylococcus aureus [6] = assay: Anti-bacterial activity against Staphylococcus aureus ATCC 12600 assessed as inhibition of bacterial growth; details: Staphylococcus aureus, ATCC 12600; read-out: MIC
Staphylococcus aureus [7] = assay: Anti-bacterial activity against Staphylococcus aureus ATCC 6538 assessed as inhibition of bacterial growth
Staphylococcus aureus [8] = assay: Anti-bacterial activity against Staphylococcus aureus CMCC (B) 26003 assessed as inhibition of bacterial growth
Staphylococcus aureus [9] = assay: Anti-bacterial activity against Staphylococcus aureus CMCC (B) 26001 assessed as inhibition of bacterial growth
Escherichia coli [10] = assay: Anti-bacterial activity against Escherichia coli JM109 assessed as inhibition of bacterial growth
Escherichia coli [11] = assay: Anti-bacterial activity against Escherichia coli ATCC 25922 assessed as inhibition of bacterial growth
Pseudomonas aeruginosa [12] = assay: Anti-bacterial activity against Pseudomonas aeruginosa ST235 assessed as inhibition of bacterial growth; details: Pseudomonas aeruginosa, ST235; read-out: MIC
Pseudomonas aeruginosa [13] = assay: Anti-bacterial activity against Pseudomonas aeruginosa ATCC 27853 assessed as inhibition of bacterial growth; details: Pseudomonas aeruginosa, ATCC 27853; read-out: MIC
Pseudomonas aeruginosa [14] = assay: Anti-bacterial activity against Pseudomonas aeruginosa ATCC 15442 assessed as inhibition of bacterial growth; details: Pseudomonas aeruginosa, ATCC 15442; read-out: MIC
Pseudomonas aeruginosa [15] = assay: Anti-bacterial activity against Pseudomonas aeruginosa ATCC 9027 assessed as inhibition of bacterial growth
Pseudomonas aeruginosa [16] = assay: Anti-bacterial activity against Pseudomonas aeruginosa CMCC (B) 10104 assessed as inhibition of bacterial growth; details: Pseudomonas aeruginosa, CMCC (B) 10104; read-out: MIC
Acinetobacter baumannii = assay: Anti-bacterial activity against Acinetobacter baumannii R674 assessed as inhibition of bacterial growth
Candida albicans [17] = assay: Anti-fungal activity against Candida albicans assessed as inhibition of fungal growth; details: Candida albicans; read-out: MIC
Candida albicans [18] = assay: Anti-fungal activity against Candida albicans 90023 assessed as inhibition of fungal growth
Candida tropicalis = assay: Anti-fungal activity against Candida tropicalis assessed as inhibition of fungal growth; details: Candida tropicalis; read-out: MIC
Candida parapsilosis = assay: Anti-fungal activity against Candida parapsilosis assessed as inhibition of fungal growth; details: Lodderomyces parapsilosis; read-out: MIC

| Compound | MIC (Staphylococcus aureus [1]) [µM] | MIC (Staphylococcus aureus [2]) [µM] | MIC (Enterococcus faecalis) [µM] | MIC (Klebsiella pneumoniae) [µM] | MIC (Staphylococcus aureus [3]) [µM] | MIC (Staphylococcus aureus [4]) [µM] | MIC (Staphylococcus aureus [5]) [µM] | MIC (Staphylococcus aureus [6]) [µM] | MIC (Staphylococcus aureus [7]) [µM] | MIC (Staphylococcus aureus [8]) [µM] | MIC (Staphylococcus aureus [9]) [µM] | MIC (Escherichia coli [10]) [µM] | MIC (Escherichia coli [11]) [µM] | MIC (Pseudomonas aeruginosa [12]) [µM] | MIC (Pseudomonas aeruginosa [13]) [µM] | MIC (Pseudomonas aeruginosa [14]) [µM] | MIC (Pseudomonas aeruginosa [15]) [µM] | MIC (Pseudomonas aeruginosa [16]) [µM] | MIC (Acinetobacter baumannii) [µM] | MIC (Candida albicans [17]) [µM] | other results |
| --- | --- | --- | --- | --- | --- | --- | --- | --- | --- | --- | --- | --- | --- | --- | --- | --- | --- | --- | --- | --- | --- |
| CCOC(=O)C1=C(CN2CCN(C(=O)/C(=N/OC)c3csc(N)n3)CC2)NC(=O)NC1c1ccc(F)cc1F (centres undefined) | 114 (≈ 64.2 µg/mL) | 28 (≈ 15.8 µg/mL) | 28 (≈ 15.8 µg/mL) | 114 (≈ 64.2 µg/mL) | 57 (≈ 32.1 µg/mL) | 28 (≈ 15.8 µg/mL) | 57 (≈ 32.1 µg/mL) | 57 (≈ 32.1 µg/mL) | 57 (≈ 32.1 µg/mL) | 114 (≈ 64.2 µg/mL) | 57 (≈ 32.1 µg/mL) | 114 (≈ 64.2 µg/mL) | 57 (≈ 32.1 µg/mL) | 57 (≈ 32.1 µg/mL) | 57 (≈ 32.1 µg/mL) | 28 (≈ 15.8 µg/mL) | 114 (≈ 64.2 µg/mL) | 114 (≈ 64.2 µg/mL) | 57 (≈ 32.1 µg/mL) | 464 (≈ 262 µg/mL) | MIC (Candida albicans [18]): 15 µM (≈ 8.45 µg/mL); MIC (Candida tropicalis): 464 µM (≈ 262 µg/mL); MIC (Candida parapsilosis): 464 µM (≈ 262 µg/mL) |
| CCOC(=O)C1=C(CN2CCN(C(=O)/C(=N/OC)c3csc(N)n3)CC2)NC(=O)NC1c1cccs1 (centres undefined) | 30 (≈ 16 µg/mL) | 30 (≈ 16 µg/mL) | 120 (≈ 64 µg/mL) | 240 (≈ 128 µg/mL) | 240 (≈ 128 µg/mL) | 240 (≈ 128 µg/mL) | 240 (≈ 128 µg/mL) | 240 (≈ 128 µg/mL) | 60 (≈ 32 µg/mL) | 240 (≈ 128 µg/mL) | 240 (≈ 128 µg/mL) | 240 (≈ 128 µg/mL) | 240 (≈ 128 µg/mL) | 480 (≈ 256 µg/mL) | 240 (≈ 128 µg/mL) | 60 (≈ 32 µg/mL) | 480 (≈ 256 µg/mL) | 240 (≈ 128 µg/mL) | 480 (≈ 256 µg/mL) | 480 (≈ 256 µg/mL) | MIC (Candida albicans [18]): 480 µM (≈ 256 µg/mL); MIC (Candida tropicalis): 480 µM (≈ 256 µg/mL); MIC (Candida parapsilosis): 480 µM (≈ 256 µg/mL) |
| CCCCc1nc(Cl)c(C2NC(=O)NC(CN3CCN(CC(=O)c4ccc(F)cc4)CC3)=C2C(=O)OCC)[nH]1 (centres undefined) | 229 (≈ 128 µg/mL) | 114 (≈ 64 µg/mL) | 57 (≈ 32 µg/mL) | 229 (≈ 128 µg/mL) | 114 (≈ 64 µg/mL) | 57 (≈ 32 µg/mL) | 57 (≈ 32 µg/mL) | 57 (≈ 32 µg/mL) | 229 (≈ 128 µg/mL) | 114 (≈ 64 µg/mL) | 57 (≈ 32 µg/mL) | 114 (≈ 64 µg/mL) | 114 (≈ 64 µg/mL) | 57 (≈ 32 µg/mL) | 57 (≈ 32 µg/mL) | 114 (≈ 64 µg/mL) | 114 (≈ 64 µg/mL) | 114 (≈ 64 µg/mL) | 114 (≈ 64 µg/mL) | 457 (≈ 256 µg/mL) | MIC (Candida albicans [18]): 29 µM (≈ 16.3 µg/mL); MIC (Candida tropicalis): 457 µM (≈ 256 µg/mL); MIC (Candida parapsilosis): 457 µM (≈ 256 µg/mL) |
